Like-named read-outs stand apart in the source and are kept apart here.
Key:
[1] = molecular target: T1, mouse KAT2 (Mus musculus, UniProt Q9WVM8); assay: Mouse KAT2 enzyme inhibition, microplate fluorescence assay of KYNA; assay type: biochemical; conditions: recombinant mouse KAT2, 1 mM L-KYN, AMP buffer pH 9.5; mean ± SEM
T1 construct: made in house; host or cells: insect Sf9 cells (baculovirus)
Description: (§1) Inhibitory activities of the identified compounds against KAT1 and KAT2 were measured using the enzyme activity assays described above. KAT1 reaction mixtures (20 μL) contained 10 ng/μL recombinant human KAT1, 1 mM L-KYN, 1 mM sodium pyruvate, 100 μM PLP, 0.005% Tween 20 and inhibitors at various concentrations in 150 mM 2-amino-2-methyl-1-propanol (AMP) buffer (pH 7.4 or 9.5). Human and mouse KAT2 reaction mixtures (20 μL) contained 10 ng/μL recombinant human or mouse KAT2, 1 mM L-KYN, 1 mM α-ketoglutaric acid, 100 μM PLP, 0.005% Tween 20 and inhibitors at various concentrations in 150 mM AMP buffer (pH 9.5). Following the addition of 20 μL aliquots of 300 mM zinc acetate, fluorescence intensities of KYNA were measured using an ARVO X Multi Label Reader (PerkinElmer, USA).
(§2) To determine steady state kinetic parameters for the substrate L-KYN, 50 μL reaction mixtures containing 10 ng/μL recombinant human KAT2, 1 mM α-KG, 100 μM PLP, 0.005% Tween 20, L-KYN at concentrations of 10, 5, 2.5, 1.25, 0.62, 0.31 and 0.15 mM and GL, GA or CBX or PF-04859989 at 4.5, 6.0 and 3.5 μM and 300 nM, respectively. Following incubation for 30 min at 37 °C, reactions were stopped by adding 3% perchloric acid at a 1:1 ratio. KYNA concentrations were measured using the same HPLC method as described above. Double reciprocal plots were used to determine types of inhibition. Competitive inhibition constants (Ki) for GL, GA and CBX were calculated using the global fit formula (GraphPad Prism v6.07)[60],[61] as follows: v=Vmax∗[S]/(Kmobs+[S])andKmobs=Km×(1+[I]/Ki), where v = initial velocity, Vmax = maximum velocity, [S] = substrate concentration, Km = Michaelis–Menten constant and [I] = inhibitor concentration. The Ki value of PF-04859989 was calculated using the global fit formula as follows: Vmaxinh=Vmax/(1+[I]/Ki)andKmobs=Vmaxinh×[S]/(Km+[S]), where Vmaxinh = maximum enzyme velocity for the concentration of inhibitor. IC50 values were determined by nonlinear curve fitting using GraphPad Prism v6.07. All statistical analyses were performed using GraphPad Prism v6.07.

[2] = molecular target: T2, human KAT4 (Homo sapiens, UniProt P00505); assay: Human KAT4 enzyme inhibition, HPLC analysis of KYNA; assay type: biochemical; conditions: recombinant human KAT4, 1 mM L-KYN, Tris buffer pH 7.5, HPLC
T2 construct: made in house; host or cells: insect Sf9 cells (baculovirus)
T2 sequence (P00505 30-430): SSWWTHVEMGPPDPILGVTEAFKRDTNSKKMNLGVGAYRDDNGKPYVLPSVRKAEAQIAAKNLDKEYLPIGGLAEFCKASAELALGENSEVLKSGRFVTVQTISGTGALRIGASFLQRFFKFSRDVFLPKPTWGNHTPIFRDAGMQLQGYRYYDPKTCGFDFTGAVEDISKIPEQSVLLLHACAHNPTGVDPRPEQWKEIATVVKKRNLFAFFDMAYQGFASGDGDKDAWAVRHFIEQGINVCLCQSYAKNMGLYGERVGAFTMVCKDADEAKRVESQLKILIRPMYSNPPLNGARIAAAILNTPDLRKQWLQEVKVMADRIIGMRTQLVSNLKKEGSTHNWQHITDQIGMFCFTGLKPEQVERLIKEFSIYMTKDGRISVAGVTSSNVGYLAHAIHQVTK
Description: (§3) KAT3 and KAT4 enzyme activities were measured using high performance liquid chromatography (HPLC) analyses of reaction products. Briefly, KAT3 reaction mixtures (50 μL) contained 10 ng/μL recombinant human KAT3, 1 mM L-KYN, 1 mM sodium pyruvate, 100 μM PLP, 0.005% Tween 20 and inhibitors at various concentrations in 150 mM AMP buffer (pH 9.5). KAT4 reaction mixtures (50 μL) contained recombinant human KAT4, 1 mM L-KYN, 1 mM α-ketoglutaric acid, 100 μM PLP, 0.005% Tween 20 and inhibitors at various concentrations in 100 mM Tris buffer (pH 7.5). Reaction mixtures were incubated for 1 h at 37 °C and reactions were then stopped by adding 3% perchloric acid at a ratio of 1:1. KYNA contents of reaction mixtures were then determined using HPLC (Shimadzu, Kyoto, Japan) following isocratic elution from a reverse-phase column (TSKgel ODS-100V, 3 μm, 4.6 mm [ID] × 150 mm [L]; Tosoh, Tokyo, Japan) using a mobile phase containing 10 mM sodium acetate with 2% acetonitrile (pH adjusted to 4.5) at flow rate of 0.8 mL/min. KYNA was detected using a fluorescence detector (RF-20Axs) at an excitation wavelength of 344 nm and an emission wavelength of 380 nm.
as §2, with “Double reciprocal plots were used to determine types of inhibition.” left out, “The Ki value of PF-04859989 was calculated using the global fit formula as follows: Vmaxinh=Vmax/(1+[I]/Ki)andKmobs=Vmaxinh×[S]/(Km+[S]), where Vmaxinh = maximum enzyme velocity for the concentration of inhibitor.” left out, “All statistical analyses were performed using GraphPad Prism v6.07.” left out

[3] = molecular target: T3, human KAT2 (Homo sapiens, UniProt Q8N5Z0); assay: Human KAT2 enzyme inhibition, microplate fluorescence assay of KYNA; assay type: biochemical
T3 construct: made in house; host or cells: insect Sf9 cells (baculovirus)
T3 sequence (Q8N5Z0 30-425): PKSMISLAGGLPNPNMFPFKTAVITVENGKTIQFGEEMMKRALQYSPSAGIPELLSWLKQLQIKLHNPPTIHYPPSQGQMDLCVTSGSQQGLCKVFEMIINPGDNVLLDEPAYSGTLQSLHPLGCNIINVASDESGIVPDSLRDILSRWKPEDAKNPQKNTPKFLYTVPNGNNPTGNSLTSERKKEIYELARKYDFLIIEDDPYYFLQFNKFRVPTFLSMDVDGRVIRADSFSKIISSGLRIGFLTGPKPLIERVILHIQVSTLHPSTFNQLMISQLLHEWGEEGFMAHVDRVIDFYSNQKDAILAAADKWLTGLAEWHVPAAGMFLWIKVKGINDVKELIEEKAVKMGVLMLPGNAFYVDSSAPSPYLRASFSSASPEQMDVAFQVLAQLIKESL
Description: High-throughput screening assays for inhibitors of human KAT2 were conducted using a microplate fluorescence assay for kynurenine aminotransferase[26] with minor modifications. In these assays, KAT2 enzyme activities were measured in black 384-well untreated plates. The human KAT2 reaction mixture (20 μL) contained 10 ng/μL recombinant human KAT2, 1 mM L-KYN, 1 mM α-ketoglutaric acid, […], 0.005% Tween 20 and 150 mM AMP buffer (pH 9.5), and was added to 384-well plates containing compounds using a Multidrop dispenser (Thermo Fisher Scientific, USA). The compound library comprised about 13,000 compounds from the Drug Discovery Initiative at the University of Tokyo. The compound library includes about 9,600 diverse compounds for pilot screening and about 3,400 known bioactive compounds. All compounds were dissolved and diluted in DMSO to a final concentration of 10 μM. Reaction mixtures were incubated for 2 h at room temperature, and 20 μL aliquots of 300 mM zinc acetate (pH 5.5) were then added directly using a Multidrop dispenser. Fluorescence intensities of KYNA were measured using an ARVO X Multi Label Reader (PerkinElmer, USA) at an excitation wavelength of 340 nm and an emission wavelength of 460 nm. Assay quality was validated by calculating signal–background and Z’ factor. These assays identified approximately 20 candidate KAT2 inhibitors with potent inhibitory activity from about 13,000 compounds. Candidate compounds were validated in quadruplicate KAT2 enzyme activity assays.
as §1, with “Human and mouse KAT2 reaction mixtures (20 μL) contained 10 ng/μL recombinant human or mouse KAT2, 1 mM L-KYN, 1 mM α-ketoglutaric acid, 100 μM PLP, 0.005% Tween 20 and inhibitors at various concentrations in 150 mM AMP buffer (pH 9.5).” left out
as §2

[4] = molecular target: T4, human KAT3 (Homo sapiens, UniProt Q6YP21); assay: Human KAT3 enzyme inhibition, HPLC analysis of KYNA; assay type: biochemical; conditions: recombinant human KAT3, 1 mM L-KYN, AMP buffer pH 9.5, HPLC; mean ± SEM
T4 construct: purchased OriGene Technologies, Inc
T4 sequence (Q6YP21 whole entry): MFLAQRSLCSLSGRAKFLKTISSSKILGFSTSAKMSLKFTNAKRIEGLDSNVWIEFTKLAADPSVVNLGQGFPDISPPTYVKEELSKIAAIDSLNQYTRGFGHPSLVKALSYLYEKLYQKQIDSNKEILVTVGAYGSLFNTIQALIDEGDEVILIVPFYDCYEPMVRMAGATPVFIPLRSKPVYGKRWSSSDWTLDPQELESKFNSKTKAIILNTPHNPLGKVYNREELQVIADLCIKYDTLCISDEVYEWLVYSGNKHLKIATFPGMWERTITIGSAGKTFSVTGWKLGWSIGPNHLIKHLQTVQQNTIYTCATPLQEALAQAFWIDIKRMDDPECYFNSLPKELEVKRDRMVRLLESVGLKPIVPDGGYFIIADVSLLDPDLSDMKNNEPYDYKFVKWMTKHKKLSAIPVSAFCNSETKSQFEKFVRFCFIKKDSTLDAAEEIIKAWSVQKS
Description: as §3, with “nm. […]” for “nm.”

[5] = molecular target: T5, human KAT1 (Homo sapiens, UniProt Q16773); assay: Human KAT1 enzyme inhibition, microplate fluorescence assay of KYNA; assay type: biochemical; conditions: recombinant human KAT1, 1 mM L-KYN, 1 mM sodium pyruvate
T5 construct: made in house; host or cells: insect Sf9 cells (baculovirus)
T5 sequence (Q16773 1-422): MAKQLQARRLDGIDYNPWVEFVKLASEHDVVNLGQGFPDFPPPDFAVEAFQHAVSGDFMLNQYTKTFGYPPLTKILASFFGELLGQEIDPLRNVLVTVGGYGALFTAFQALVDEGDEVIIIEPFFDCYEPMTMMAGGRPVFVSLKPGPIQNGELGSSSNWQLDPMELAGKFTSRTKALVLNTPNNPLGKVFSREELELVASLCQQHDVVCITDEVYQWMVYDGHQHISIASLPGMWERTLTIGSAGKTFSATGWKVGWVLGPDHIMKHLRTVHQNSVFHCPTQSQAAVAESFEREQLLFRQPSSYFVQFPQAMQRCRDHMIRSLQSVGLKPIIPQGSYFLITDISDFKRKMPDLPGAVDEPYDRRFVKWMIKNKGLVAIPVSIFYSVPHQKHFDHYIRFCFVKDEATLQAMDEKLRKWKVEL
Description: as §1, §2

[6] = molecular target: T3, human KAT2; assay: Human KAT2 inhibition kinetics with varying KYN (Lineweaver-Burk, global fit), HPLC; assay type: biochemical; conditions: for Ki: global fit formula, mean ± SEM, read-out: Ki (inhibition constant); for type of inhibition: inhibitor close to its IC50, Lineweaver-Burk
Description: as §2

[7] = molecular target: T3, human KAT2; parameters: method as in PMID 18537204, PMID 27367665; conditions: read-out: reported IC50; cited from earlier work
[8] = cited from earlier work
[9] = human KAT2 at physiological conditions (pH 7.4)
[10] = recombinant human KAT2, 1 mM L-KYN, AMP buffer pH 9.5, mean ± SEM, three experiments

T1 sequence (Q9WVM8 30-425): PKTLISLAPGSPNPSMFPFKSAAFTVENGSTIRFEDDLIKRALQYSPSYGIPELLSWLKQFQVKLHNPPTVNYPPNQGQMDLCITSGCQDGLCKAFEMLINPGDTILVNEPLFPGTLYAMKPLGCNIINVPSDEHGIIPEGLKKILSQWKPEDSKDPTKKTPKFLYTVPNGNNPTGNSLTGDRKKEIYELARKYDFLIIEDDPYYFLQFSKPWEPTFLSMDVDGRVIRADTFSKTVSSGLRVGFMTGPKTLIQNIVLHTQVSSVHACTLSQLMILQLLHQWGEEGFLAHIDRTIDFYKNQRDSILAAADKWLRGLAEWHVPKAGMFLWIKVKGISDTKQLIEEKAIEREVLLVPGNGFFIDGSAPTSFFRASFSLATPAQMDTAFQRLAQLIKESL

Molecule | IC50 [1] [µM] | IC50 [2] [µM] | IC50 [3, 9] [µM] | IC50 [3, 10] [µM] | IC50 [4] [µM] | IC50 [5] [µM] | Ki [6] [µM] | type of inhibition [6] | IC50 [7] [µM] | IC50 ([3]; KAT2, as determined in our assays) [µM] | passage through the BBB [8]
CC1(C)[C@@H](O[C@H]2O[C@H](C(=O)O)[C@@H](O)[C@H](O)[C@H]2O[C@@H]2O[C@H](C(=O)O)[C@@H](O)[C@H](O)[C@H]2O)CC[C@]2(C)[C@H]3C(=O)C=C4[C@@H]5C[C@@](C)(C(=O)O)CC[C@]5(C)CC[C@@]4(C)[C@]3(C)CC[C@@H]12 [GL, glycyrrhizic acid] | 86.2 ± 1.94 | > 500 | 7.93 ± 0.17 | 4.51 ± 0.2 | > 500 | > 500 | 10.4 ± 1.62 | competitive inhibitors of KYN |  |  | 
CC1(C)[C@@H](O)CC[C@]2(C)[C@H]3C(=O)C=C4[C@@H]5C[C@@](C)(C(=O)O)CC[C@]5(C)CC[C@@]4(C)[C@]3(C)CC[C@@H]12 [GA, glycyrrhetinic acid] | 56.8 ± 1.45 | > 500 | 9.87 ± 0.32 | 6.96 ± 0.37 |  | > 500 | 6.92 ± 0.6 | competitive inhibitors of KYN |  |  | 
O=C(O)C(Cc1ccccc1)N1C(=O)c2cc(Cl)c(Cl)cc2C1=O (centres unmarked) [NS-1502] |  |  |  |  |  |  |  |  | 315 |  | 
N[C@H]1Cc2ccccc2N(O)C1=O [PF-04859989] |  |  |  |  |  |  | 0.22 ± 0.01 | maximum reaction rates (Vmax) varied but the Michaelis–Menten constant (Km) did not change |  | 0.3 | 
CC1(C)[C@@H](OC(=O)CCC(=O)O)CC[C@]2(C)[C@H]3C(=O)C=C4[C@@H]5C[C@@](C)(C(=O)O)CC[C@]5(C)CC[C@@]4(C)[C@]3(C)CC[C@@H]12 [CBX, carbenoxolone] | 19.8 ± 0.34 | > 500 | 3.34 ± 0.25 | 3.9 ± 0.37 | > 500 | > 500 | 4.11 ± 0.37 | competitive inhibitors of KYN |  |  | failed to pass through the BBB
(S)-4-(ethylsulfonyl)benzoylalanine [S-ESBA] |  |  |  |  |  |  |  |  | ~1000 |  | 
